Data from PMC5069167 (Nature chemical biology, 2016).

Molecular target: T1, PolD (Streptomyces asoensis, UniProt C1IC31)
T1 sequence (C1IC31 1-215): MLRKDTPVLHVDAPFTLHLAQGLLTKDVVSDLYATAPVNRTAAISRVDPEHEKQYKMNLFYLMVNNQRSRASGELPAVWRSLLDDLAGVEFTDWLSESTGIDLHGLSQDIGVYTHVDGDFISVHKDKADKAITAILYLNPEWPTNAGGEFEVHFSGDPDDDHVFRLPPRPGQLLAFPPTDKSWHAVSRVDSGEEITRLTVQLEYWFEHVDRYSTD
Assay: binding and oxidation of alpha-KG, succinate detection by HR-MS
Format: biochemical
Details: Fe(II), ascorbate 5 mM, O2, pH 7.6, 25 °C

Compound: O=C(O)CCC(=O)C(=O)O [α-KG]
- binding and oxidation of alpha-KG, succinate detection by HR-MS: non-heme mono-iron center capable of binding and oxidizing α-KG
